One assay has as its system advanced breast cancer. To be noted: cited from earlier work.
The subject of the next assay is serum testosterone. The assay can be described thus: LHRH agonist-induced serum testosterone in the dog (RIA). To be noted: dogs; for prevention of the LHRH agonist-induced rise in serum testosterone: per os three times daily with 50 μg LHRH-A daily (ketoconazole 200 mg; aminoglutethimide 125 mg plus hydrocortisone), first days of treatment, FIG. 2 and 3. It is filed as in vivo. How it is done: Eighteen mongrel dogs weighing between 20-30 kg were randomly divided into three groups. The animals were housed one per cage and fed Purina Dog Chow and tap water ad libitum.
The animals of group 1 were injected daily (at 0700h) with 50 μg of the LHRH agonist [D-Trp^6, des-Gly-NH2^10 ]LHRH ethylamide (LHRH-A). In group 2, the animals were also injected daily with 50 μg of LHRH-A and took in addition 200 mg of ketoconazole per os at 0700h, 1500h and 2300h. The animals of group 3 received daily 50 μg of LHRH-A and 125 mg of aminoglutethimide per os at 0700h, 1500h, 2300h plus 10 mg of hydrocortisone twice daily.
Blood samples were collected at 0700h, 0900h, 1100h and 1500h one day before treatment and every day during the treatment. Plasma was extracted with diethyl ether and testosterone was separated on LH-20 columns before RIA measurements.

In another assay the test system is testosterone levels. To be noted: rodents, in combination with chronic administration of Leuprolide; Santen et al. 1984; cited from earlier work.

These results are taken from patent US5064813A, “Combination therapy for selected sex steroid dependent cancers” (priority 1989, dated 1991).

As for `CC/C(=C(\c1ccccc1)c1ccc(OCCN(C)C)cc1)c1ccccc1` [Tamoxifen, (Z)-2-[4-(1,2-diphenyl-1-butenyl)phenoxy]-N,N-dimethylethanamine], the “remission of advanced breast cancer, share of the patients treated” value with advanced breast cancer (Tamoxifen alone, Mouridsen et al. 1978) is listed as “about 30%”. Besides, in the assay on advanced breast cancer (combined use with the LH-RH agonist Buserelin, Klijn et al. 1984), the “objective remission of breast cancer” value was 35%. With `CCNC(=O)[C@@H]1CCCN1C(=O)[C@H](CCCNC(=N)N)NC(=O)[C@H](CC(C)C)NC(=O)[C@@H](Cc1c[nH]c2ccccc12)NC(=O)[C@H](Cc1ccc(O)cc1)NC(=O)[C@H](CO)NC(=O)[C@H](Cc1c[nH]c2ccccc12)NC(=O)[C@H](Cc1c[nH]cn1)NC(=O)[C@@H]1CCC(=O)N1` [[D-Trp^6 des-Gly-NH2^10]LHRH ethylamide, [D-Trp^6, des-Gly-NH2^10]LHRH ethylamide], in the assay on serum testosterone (daily injection of 50 μg, day 19, FIG. 1), the “level of serum testosterone on day 19” value is on record as “near-castration levels”. Besides, in the assay on serum testosterone (daily injection of 50 μg, one to six days following start of treatment, FIG. 1), the “increase in serum testosterone” value was “approximately 500 % above control”. On to `CCC1(c2ccc(N)cc2)CCC(=O)NC1=O` (stereo not shown) [aminoglutethimide, 3-(4-aminophenyl)-3-ethyl-2,6-piperidinedione], for which, in the assay with serum testosterone, the “prevention of the LHRH agonist-induced rise in serum testosterone” value was “almost completely prevented”. `CC(=O)N1CCN(c2ccc(OCC3COC(Cn4ccnc4)(c4ccc(Cl)cc4Cl)O3)cc2)CC1` (stereo not shown) [ketoconazole]: in the assay on serum testosterone, the “prevention of the LHRH agonist-induced rise in serum testosterone” value is given as “almost completely prevented”. Also, the “basal and Leuprolide stimulated testosterone levels” value in the assay with testosterone levels was “decreased”.
